Legend:
LAT1 [1] = molecular target: T1, LAT1 (Mus musculus, UniProt Q9Z127); assay: Cellular uptake of L-leucine after pre-incubation of BV2 cells with the compounds; type: cell-based; conditions: 100 µM (L-glutamine 2 mM) pre-incubated 10 min or 3 h, L-leucine 1–400 µM, 5 min
Description: The ability of compounds 1–15 to affect the uptake of a known LAT1 substrate L-leucine was evaluated by pre-incubating the BV2 cells at 37 °C for 10 min or 3 h with uptake buffer pH 7.4 (250 μL) containing 100 µM of compounds 1–15 or thyroxin (T4), or known nuclear receptor inducible compounds, phenobarbital (constitutive androstane receptor, CAR), and dexamethasone (pregnane X receptor, PXR) as controls. […] After incubation, the reaction was stopped by adding 250 µL of ice-cold HBSS, and the cells were washed two times with ice-cold HBSS. The cells were then lysed with 500 μL of 0.1 M NaOH (60 min) and the lysate was mixed with 3.5 mL of Emulsifier safe cocktail (Ultima Gold, PerkinElmer, Waltham, MA, USA). The radioactivity in the cells was measured by liquid scintillation counting (MicroBeta^2 counter, PerkinElmer Waltham, MA, USA). The results were multiplied by the amount of un-labeled proportion of L-leucine in each sample.

[2] = Liver lysosomal accumulation after i.p. dose to mice; type: in vivo; conditions: mouse liver; parent drug of the named prodrug
Description: Adult male mice weighing 25 ± 5 g were supplied by Envigo (Venray, Netherlands). Mice were housed in stainless steel cages on a 12 h light (07:00–19:00) and 12 h dark (19:00–07:00) cycle at an ambient temperature of 22 ± 1 °C with a relative humidity of 50–60%. All experiments were carried out during the light phase. Tap water and food pellets (Lactamin R36; Lactamin AB, Södertälje, Sweden) were available ad libitum. A dose of 25 µmol/kg of compound 1, 2, or 8–11 was given as a bolus injection (i.p.) to mice. The mice were decapitated at selected time points between (10–360 min) and brain tissues were collected for sample preparation to be analyzed by liquid chromatography-mass spectrometric (LC-MS/MS) analysis.
The liver lysosomal samples (10–120 min; tmax) were prepared by homogenizing the pre-weigh tissues with ice-cold 0.25 M sucrose (1:3). […] Samples were vortexed and centrifuged at 10,000× g at 4 °C for 10 min and injected to LC-MS/MS to quantify the total drug amount in tissue as a control to lysosomal samples. […] The concentration of compounds in the crude lysosomal fractions were then analyzed with LC-MS/MS. Both the total liver tissue accumulation as well as the lysosomal fraction (including the possibly released parent drugs) were calculated from the standard curve that was prepared by spiking known amounts of compounds to ACN, including the selected internal standard. […]

LAT1 [3] = molecular target: T1, LAT1; set-up: method as in earlier work; conditions: BV2 cells; probe [14C]-L-Leu; mean ± SD; published earlier; ref [31] or [33]; read-out: IC50 of [14C]-L-Leu uptake; cited from earlier work

T1 sequence (Q9Z127 whole entry): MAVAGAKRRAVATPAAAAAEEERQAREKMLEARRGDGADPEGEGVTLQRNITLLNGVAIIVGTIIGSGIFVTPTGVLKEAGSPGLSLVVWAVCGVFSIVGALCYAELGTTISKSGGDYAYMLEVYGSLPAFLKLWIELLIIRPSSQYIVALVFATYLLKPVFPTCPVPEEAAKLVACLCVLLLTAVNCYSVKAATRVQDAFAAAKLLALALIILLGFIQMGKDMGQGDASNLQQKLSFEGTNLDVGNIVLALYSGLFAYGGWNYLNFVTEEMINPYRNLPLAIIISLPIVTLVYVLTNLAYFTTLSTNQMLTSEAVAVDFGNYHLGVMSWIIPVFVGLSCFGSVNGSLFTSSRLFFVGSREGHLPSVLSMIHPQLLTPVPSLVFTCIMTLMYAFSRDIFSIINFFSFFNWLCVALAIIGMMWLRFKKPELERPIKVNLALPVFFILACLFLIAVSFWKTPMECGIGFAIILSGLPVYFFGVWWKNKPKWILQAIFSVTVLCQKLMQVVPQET
T1 sequence (P10852 whole entry partner): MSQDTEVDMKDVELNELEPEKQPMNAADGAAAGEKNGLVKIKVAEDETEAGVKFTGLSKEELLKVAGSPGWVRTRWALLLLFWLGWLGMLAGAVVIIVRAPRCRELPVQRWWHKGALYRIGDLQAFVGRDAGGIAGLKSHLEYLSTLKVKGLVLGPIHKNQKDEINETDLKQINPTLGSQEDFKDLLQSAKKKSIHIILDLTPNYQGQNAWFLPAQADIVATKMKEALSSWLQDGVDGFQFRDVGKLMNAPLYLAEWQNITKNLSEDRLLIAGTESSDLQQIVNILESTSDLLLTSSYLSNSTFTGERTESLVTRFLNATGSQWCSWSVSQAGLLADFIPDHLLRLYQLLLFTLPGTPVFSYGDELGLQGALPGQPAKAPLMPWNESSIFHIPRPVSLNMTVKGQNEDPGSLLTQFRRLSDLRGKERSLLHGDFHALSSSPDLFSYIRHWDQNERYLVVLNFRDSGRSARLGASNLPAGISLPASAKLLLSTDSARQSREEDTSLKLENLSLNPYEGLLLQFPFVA

Effect on cellular uptake of L-Leu after pre-incubation (LAT1 [1]) | Accumulation of parent drug (dosed as such) into crude lysosomal fraction, of total liver tissue accumulation [2] | Structure (SMILES) | IC50 (LAT1 [3]) [µM]
induced the uptake of L-Leu | no parent drug was detected | C[C@H](C(=O)Nc1cccc(C[C@H](N)C(=O)O)c1)c1cccc(C(=O)c2ccccc2)c1 [Compound 2] | 
induced the uptake of L-Leu |  | COc1cc(C=CC(=O)NCc2cccc(CC(N)C(=O)O)c2)ccc1O (centres unmarked) [Compound 5] | 
 |  | N[C@@H](Cc1cccc(NC(=O)c2ccccc2O)c1)C(=O)O [Compound 8] | 18.9 ± 1.6
 |  | C[C@H](C(=O)Oc1cccc(C[C@H](N)C(=O)O)c1)c1ccc(-c2ccccc2)c(F)c1 [Compound 12] | 4.2 ± 1.2

— article PMC8746705, “Comparison of Experimental Strategies to Study L-Type Amino Acid Transporter 1 (LAT1) Utilization by Ligands” (Molecules, 2021)
